Patent US7582667B2, “Dihydrospiro[dibenzo[a,d][7]annulene-5,4′-imidazol] compounds for the inhibition of beta-secretase” (Wyeth, priority 2006, dated 2009)

Columns and labels:
human BACE1 = human BACE1 (Homo sapiens, UniProt P56817); test: Fluorescent kinetic assay, BACE-1 binding affinity (peptide substrate WABC-6 cleavage); type: biochemical; conditions: 10 nM enzyme, 25 μM substrate WABC-6, Na-Acetate pH 4.5, room temperature
Experimental: Evaluation of BACE-1 Binding Affinity of Test Compounds
Fluorescent Kinetic Assay
Final Assay Conditions: 10 nM human BACE1 (or 10 nM Murine BACE1), 25 μM substrate (WABC-6, MW 1549.6, from AnaSpec), Buffer: 50 mM Na-Acetate, pH 4.5, 0.05% CHAPS, 25% PBS, room temperature. Na-Acetate was from Aldrich, Cat. #24, 124-5, CHAPS was from Research Organics, Cat. #1304C 1X, PBS was from Mediatech (Cellgro), Cat#21-031-CV, peptide substrate Abz[…]pa was from AnaSpec, Peptide Name: WABC-6 Determination of stock substrate (Abz[…]pa) concentration: ˜25 mM stock solution is made in DMSO using the peptide weight and MW, and diluted to ˜25 μM (1:1000) in 1×PBS. Concentration is determined by absorbance at 354 nm using an extinction coefficient ε of 18172 M^−1cm^−1, the concentration of stock substrate is corrected, and the substrate stock stored in small aliquots in −80° C. […] Determination of Stock Enzyme Concentration: the stock concentration of each enzyme is determined by absorbance at 280 nm using ε of 64150 M^−1cm^−1 for hBACE1 and MuBACE1 in 6 M Guanidinium Hydrochloride (from Research Organics, Cat. # 5134G-2), pH ˜6. The extinction coefficient ε^280 nm for each enzyme was calculated based on known amino acid composition and published extinction coefficients for Trp ([…]) and Tyr ([…]) residues (Anal. Biochem. 182, 319-326). Dilution and mixing steps: total reaction volume: 100 μL
2× inhibitor dilutions in buffer A (66.7 mM Na-Acetate, pH 4.5, 0.0667% CHAPS) were prepared,
4× enzyme dilution in buffer A (66.7 mM Na-Acetate, pH 4.5, 0.0667% CHAPS) were prepared,
100 μM substrate dilution in 1× PBS was prepared, and
50 μL 2× Inhibitor, 25 μL 100 μM substrate are added to each well of 96-well plate (from DYNEX Technologies, VWR #: 11311-046), immediately followed by 25 μL 4× enzyme (added to the inhibitor and substrate mix), and the fluorescence readings are initiated.
Fluorescence Readings: Readings at λex 320 nm and λem 420 nm are taken every 40 sec for 30 min at room temperature and the linear slope for substrate cleavage rate (vi) determined.
Calculation of % Inhibition: % Inhibition=100*(1−vi/v0) • vi: substrate cleavage rate in the presence of inhibitor • v0: substrate cleavage rate in the absence of inhibitor • IC50 Determination: % Inhibition=((B*IC50^n)+(100*I0^n))/(IC50^n+I0^n) (Model #39 from LSW Tool Bar in Excel where B is the % inhibition from the enzyme control, which should be close to 0.) % Inhibition is plotted vs. Inhibitor Concentration (I0) and the data fit to the above equation to obtain IC50 value and Hill number (n) for each compound.

human BACE1, sequence (P56817 46-501): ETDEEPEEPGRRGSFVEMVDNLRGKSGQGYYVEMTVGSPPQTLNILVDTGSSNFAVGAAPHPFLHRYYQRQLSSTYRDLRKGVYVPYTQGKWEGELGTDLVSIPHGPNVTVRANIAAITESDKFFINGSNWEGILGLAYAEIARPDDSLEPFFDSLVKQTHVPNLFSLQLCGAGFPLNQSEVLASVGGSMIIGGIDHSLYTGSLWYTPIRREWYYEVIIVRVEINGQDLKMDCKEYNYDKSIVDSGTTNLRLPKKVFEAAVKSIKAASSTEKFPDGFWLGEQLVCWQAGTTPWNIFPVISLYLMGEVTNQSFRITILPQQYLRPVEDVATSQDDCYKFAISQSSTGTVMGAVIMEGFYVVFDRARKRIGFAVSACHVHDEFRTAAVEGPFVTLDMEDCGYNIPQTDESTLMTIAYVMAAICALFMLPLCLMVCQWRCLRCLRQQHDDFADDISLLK

Compound	IC50 (human BACE1)	melting point
COc1ccc2c(c1C)CCc1ccc(-c3cc(F)ccc3F)cc1C21N=C(N)N(C)C1=O (stereo not shown) [Example 7, 2′-amino-7-(2,5-difluorophenyl)-2-methoxy-1,1′-dimethyl-10,11-dihydrospiro[dibenzo[a,d][7]annulene-5,4′-imidazol]-5′(1′H)-one]	0.25 µM	155 to 195 °C
COc1ccc2c(c1C)CCc1ccc(-c3cccc(C#N)c3)cc1C21N=C(N)N(C)C1=O (stereo not shown) [Example 8, 3-(2′-amino-8-methoxy-1′,9-dimethyl-5′-oxo-1′,5′, 10,11-tetrahydrospiro[dibenzo[a,d][7]annulene-5,4′-imidazol]-3-yl)benzonitrile]	0.235 µM	269 to 280 °C
COc1ccc2c(c1C)CCc1ccc(-c3cc(F)cc(F)c3)cc1C21N=C(N)N(C)C1=O (stereo not shown) [Example 10, 2′-amino-7-(3,5-difluorophenyl)-2-methoxy-1,1′-dimethyl-10,11-dihydrospiro[dibenzo[a,d][7]annulene-5,4′-imidazol]-5′(1′H)-one]	0.376 µM	245 to 249 °C
COc1ccc2c(c1)CCc1ccc(-c3ccccc3)cc1C21N=C(N)N(C)C1=O (stereo not shown) [Example 12, 2′-Amino-2-methoxy-1′-methyl-7-phenyl-10,11-dihydrospiro[dibenzo[a,d][7]annulene-5,4′-imidazol]-5′(1′H)-one]	0.18 µM	

These reach a lower IC50 (human BACE1). Values come first.

IC50 (human BACE1)	melting point	Compound
0.138 µM		COc1cccc(-c2ccc3c(c2)C2(N=C(N)N(C)C2=O)c2ccc(OC)c(C)c2CC3)c1 (stereo not shown) [Example 9, 2′-amino-2-methoxy-7-(3-methoxyphenyl)-1,1′-dimethyl-10,11-dihydrospiro[dibenzo[a,d][7]annulene-5,4′-imidazol]-5′(1′H)-one]
0.108 µM		2′-amino-7-(6-fluoropyridin-3-yl)-2-methoxy-1,1′-dimethyl-10,11-dihydrospiro[dibenzo[a,d][7]annulene-5,4′-imidazol]-5′(1′H)-one [Example 6]
0.077 µM	235 to 239 °C	COc1ccc2c(c1C)CCc1ccc(-c3cccnc3)cc1C21N=C(N)N(C)C1=O (stereo not shown) [Example 3, 2′-Amino-2-methoxy-1,1′-dimethyl-7-pyridin-3-yl-10,11-dihydrospiro[dibenzo[a,d][7]annulene-5,4′-imidazol]-5′(1′H)-one]
0.063 µM	153 to 155 °C	COc1ccc2c(c1C)CCc1ccc(-c3cccnc3F)cc1C21N=C(N)N(C)C1=O (stereo not shown) [Example 4, 2′-amino-7-(2-fluoropyridin-3-yl)-2-methoxy-1,1′-dimethyl-10,11-dihydrospiro[dibenzo[a,d][7]annulene-5,4′-imidazol]-5′(1′H)-one]
